Source: publication PMC8298857, “Vanillin Activates Human Bitter Taste Receptors TAS2R14, TAS2R20, and TAS2R39” (Frontiers in Nutrition, 2021)

Legend:
Assay in all cases: FLIPR calcium imaging in transfected HEK293 PEAKrapid Gα[…]i/o44 cells, dose-response with mock control
Type in all cases: cell-based
TAS2R39 = target: T1, TAS2R39 (Homo sapiens, UniProt P59534)
T1 construct: TAS2R cDNA cloned 3′ of the first 45 amino acids of the rat somatostatin receptor 3
T1 sequence (P59534 1-338): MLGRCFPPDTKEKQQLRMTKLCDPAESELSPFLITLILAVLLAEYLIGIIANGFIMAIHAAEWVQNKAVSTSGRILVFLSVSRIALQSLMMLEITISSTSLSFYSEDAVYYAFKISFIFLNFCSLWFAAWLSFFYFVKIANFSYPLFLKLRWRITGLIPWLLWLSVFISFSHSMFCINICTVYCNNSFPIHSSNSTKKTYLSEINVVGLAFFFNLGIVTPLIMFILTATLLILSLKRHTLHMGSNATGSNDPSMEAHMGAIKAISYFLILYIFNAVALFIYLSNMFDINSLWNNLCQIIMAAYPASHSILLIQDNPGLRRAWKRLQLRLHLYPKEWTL

TAS2R20 = target: T2, TAS2R20 (Homo sapiens, UniProt P59543)
T2 construct: TAS2R cDNA cloned 3′ of the first 45 amino acids of the rat somatostatin receptor 3
T2 sequence (P59543 1-309): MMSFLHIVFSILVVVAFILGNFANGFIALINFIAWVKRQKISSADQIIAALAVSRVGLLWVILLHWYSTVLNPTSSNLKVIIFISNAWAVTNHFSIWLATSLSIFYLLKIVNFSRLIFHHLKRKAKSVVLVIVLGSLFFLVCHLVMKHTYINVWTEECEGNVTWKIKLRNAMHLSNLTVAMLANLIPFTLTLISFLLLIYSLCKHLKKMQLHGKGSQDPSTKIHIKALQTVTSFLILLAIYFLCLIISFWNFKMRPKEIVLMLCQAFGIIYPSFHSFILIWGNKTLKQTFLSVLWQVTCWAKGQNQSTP

TAS2R14 = target: T3, TAS2R14 (Homo sapiens, UniProt Q9NYV8)
T3 construct: TAS2R cDNA cloned 3′ of the first 45 amino acids of the rat somatostatin receptor 3
T3 sequence (Q9NYV8 1-317): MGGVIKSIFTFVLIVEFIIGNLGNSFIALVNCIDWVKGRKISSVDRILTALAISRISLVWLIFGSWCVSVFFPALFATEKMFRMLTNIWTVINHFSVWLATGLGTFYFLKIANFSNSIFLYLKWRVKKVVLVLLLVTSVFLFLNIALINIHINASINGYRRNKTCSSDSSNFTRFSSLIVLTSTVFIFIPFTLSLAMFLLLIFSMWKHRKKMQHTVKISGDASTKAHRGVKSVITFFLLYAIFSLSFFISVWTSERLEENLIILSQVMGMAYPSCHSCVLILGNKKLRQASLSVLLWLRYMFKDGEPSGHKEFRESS

`COc1cc(C=O)ccc1O` [vanillin, 4-hydroxy-3-methoxybenzaldehyde] showed an EC50 (TAS2R39) of 870 ± 190 µM, an EC50 (TAS2R20) of 530 ± 90 µM and an EC50 (TAS2R14) of 570 ± 110 µM.
